The source made the active and inactive calls. No rule for the calls is given here.
Tested on: L. donovani-infected THP-1 macrophages, intracellular amastigote imaging
Test: antileishmanial activity in infected THP-1 macrophages – imaging, THP-1 host macrophages, host toxicity (AID 1159564)
[1] = measured here: THP-1 host cell toxicity
[2] = measured here: amastigotes per macrophage

| Structure (SMILES) | IC50 | IC50 [1] [µM] | IC50 [2] [µM] |
| --- | --- | --- | --- |
| Cc1cccc(N2CCCN(Cc3c[nH]c4ccccc34)CC2)n1 | 10 µM | 10 | 10 |
| c1ccc(Nc2nc(-c3ccccn3)cc(N3CCOCC3)n2)cc1 | 2 µM | > 50 | 1.3 |
| CC(C)CC(=O)NC(c1cccs1)c1ccc2cccnc2c1O (configuration not stated) | 7.9 µM | 1.6 | 3.2 |
| CC(C)C[C@H](NC(=O)c1csc(-c2cccs2)n1)C(=O)NC1(C#N)CC1 | > 50 µM (inactive) | > 50 | > 50 |
| CC(Cn1ccnc1)NC(=O)COc1ccc(Cl)c(Cl)c1 (configuration not stated) | > 50 µM (inactive) | > 50 | > 50 |
| COc1ccc2ncc(Cl)c(CCN3CC[C@H](NCc4cc5c(cn4)OCS5)[C@@H](O)C3)c2n1 | 1 µM | 6.3 | 0.5 |
| Cc1ccc(S(=O)(=O)Cn2nnnc2C(c2cccnc2)N2CCN(c3ccccc3)CC2)cc1 (configuration not stated) | > 50 µM (inactive) | > 50 | > 50 |
| NC(=O)c1ccsc1NC(=O)c1ccc([N+](=O)[O-])s1 | 1.6 µM | 13 | 1.3 |
| CC(C)N(C(=O)CN1C(=O)C(N)C(=O)N(c2ccccc2)c2ccccc21)c1ccccc1 (configuration not stated) | > 50 µM (inactive) | > 50 | > 50 |
| Cc1sc(C)c(C(F)(F)F)c1CNCCCNc1cc(=O)c2ccccc2[nH]1 | 50 µM | 32 | 25 |
| N#CN1CC[C@@H](NC(=O)Nc2ccccc2Oc2ccccc2)C1 | 5 µM | 25 | 4 |
| Cn1nc(C(=O)N2CCc3ccccc32)c2c1CCS(=O)(=O)C2 | 4 µM | > 50 | 1.6 |
| Cn1ccnc1CN1CCc2[nH]cnc2C1c1ccccc1OCc1ccccc1 (configuration not stated) | > 50 µM (inactive) | > 50 | > 50 |
| O=C(Nc1n[nH]c(-c2ccccn2)n1)C1CC1c1ccccc1 (configuration not stated) | 7.9 µM | 20 | 7.9 |
| CC(C)Nc1nc(Cl)nc2ccccc12 | 2.5 µM | 20 | 1.3 |
| Cc1nc(C(=O)Nc2ccc3c(c2)OCO3)nn1-c1ccc(Cl)cc1 | 2 µM | 13 | 1.6 |
| CCN(CC)S(=O)(=O)c1ccc(C(=O)Nc2cc(C)nn2-c2nc(C)c(C)c(=O)[nH]2)cc1 | > 50 µM (inactive) | 3.2 | > 50 |
| COc1ccc(Cc2nc(-c3ncc4cccnc4c3O)n[nH]2)cc1OC | 3.2 µM | 20 | 2.5 |
| COc1ccc(-c2cnc(C)o2)cc1S(=O)(=O)Nc1ccc(C)cc1C | 3.2 µM | > 50 | 2.5 |
| O=C(Nc1nc(-c2ccccn2)cs1)c1ccc(S(=O)(=O)N2CCCCC2)cc1 | 1.3 µM | 13 | 1 |
| CC(c1cc(Cl)cc(Cl)c1)N(C)c1ncc2c(N)nc(N)nc2n1 (configuration not stated) | 0.79 µM | 32 | 0.25 |
| COc1cc(-c2nc(N3CCOCC3)sc2-c2ccnc(NC3CCOCC3)n2)ccc1Cl | > 50 µM (inactive) | > 50 | 0.02 |
| O=C(c1cccc(Nc2ncc(-c3ccc4c(c3)OCO4)cn2)c1)N1CCOCC1 | 4 µM | 63 | 1.6 |

| Structure (SMILES) | IC50 | IC50 [1] [µM] | IC50 [2] [µM] |
| --- | --- | --- | --- |
| CC(C)Oc1ccc(C(=O)Nc2ccc(N3CCOCC3)c(Cl)c2)cc1 | > 50 µM (inactive) | > 50 | 3.2 |
| Cc1[nH]n2c(=O)c3c(nc2c1-c1ccc(F)cc1)CCCC3 | > 50 µM (inactive) | > 50 | > 50 |
| Cc1nccn1C1CCCN(C(=O)c2cc3c(F)cccc3s2)C1 (configuration not stated) | > 50 µM (inactive) | > 50 | > 50 |
| CC(Cn1ccnc1)NC(=O)C1CC1c1cccc(Cl)c1Cl (configuration not stated) | > 50 µM (inactive) | > 50 | 10 |
| Cc1ccc2c(c1)-c1onc(C(=O)N3CCCCC3c3cccnc3)c1CO2 (configuration not stated) | > 50 µM (inactive) | 40 | 40 |
| Clc1ccc(C(CC2CCCCO2)Cn2cncn2)c(Cl)c1 (configuration not stated) | > 50 µM (inactive) | > 50 | > 50 |
| O=C(NCCc1cccnc1)c1csc(-c2ccccc2)n1 | > 50 µM (inactive) | > 50 | > 50 |
| Cc1cc(NC(=O)c2ccc([N+](=O)[O-])s2)ccc1Br | 2.5 µM | 16 | 1.6 |
| O=C(c1cnn(-c2ccccc2)n1)N1CCCC(n2ccnc2)C1 (configuration not stated) | > 50 µM (inactive) | > 50 | 0.63 |
| O=C(NCC1CCCCC1)c1cc(=O)c2ccccc2o1 | 16 µM | < 50 | 6.3 |
| O=C(NC1CCN(C2Cc3ccc(NS(=O)(=O)c4cc(F)cc(F)c4)cc3C2)CC1)C1CC1 (configuration not stated) | > 50 µM (inactive) | 13 | 13 |
| O=S(=O)(NCC(c1cccnc1)N1CCN(c2ccc(F)cc2)CC1)c1cccs1 (configuration not stated) | > 50 µM (inactive) | > 50 | > 50 |
| O=C(NCC1CCCCC1)c1cnns1 | > 50 µM (inactive) | > 50 | 10 |
| CCCn1c(NC(=O)CCn2cc(Br)cn2)nc2ccccc21 | 10 µM | > 50 | 5 |
| Cc1cc2ncn(-c3ccc([N+](=O)[O-])cc3C#N)c2cc1C | > 50 µM (inactive) | > 50 | > 50 |
| O=C(c1ccc(OCCCc2cnc[nH]2)cc1)C1CC1 | > 50 µM (inactive) | > 50 | 7.9 |
| N#Cc1ccc(S(=O)(=O)N2CCN(Cc3cccc(-c4ccncc4)c3)CC2)cc1 | > 50 µM (inactive) | > 50 | 1.3 |
| Cc1c(Nc2cc(C3CC3)[nH]n2)ccc(C#N)c1Cl | 40 µM | 25 | 25 |
| CCc1c(C)nc(-n2nc(C)cc2NC(=O)COc2ccccc2F)[nH]c1=O | 7.9 µM | 4 | 5 |
| COc1ccc(CNc2cc(C3CC3)nc(-c3nccn3C)n2)cc1 | 0.79 µM | 13 | 0.79 |
| COc1ccc(-c2ccc3nnc(-c4ccc(O)c(OC)c4)n3c2)cn1 | > 50 µM (inactive) | > 50 | > 50 |
| CN1CCC(N(C)c2nccc(N3CCN(C(=O)c4cccc(-c5cccnc5)c4)CC3)n2)CC1 | 1.3 µM | 7.9 | 1.3 |
| CCN(CC)c1ccc(S(=O)(=O)N(CC)CC)c2nonc12 | 0.4 µM | 16 | 0.13 |

| Structure (SMILES) | IC50 | IC50 [1] [µM] | IC50 [2] [µM] |
| --- | --- | --- | --- |
| COc1cnc2ccc(=O)n(CCN3CCC(NC(=O)c4ccc(Cl)cc4)CC3)c2c1 | > 50 µM (inactive) | > 50 | 4 |
| CC(C)(C)C(=O)NCCc1csc(-c2ccc(F)cc2)n1 | > 50 µM (inactive) | > 50 | > 50 |
| COCCn1cnc2cc(NC(=O)C3CCCCC3)cc(C(=O)N3CCc4sccc4C3)c21 | > 50 µM (inactive) | > 50 | > 50 |
| O=C(CCCn1cnc([N+](=O)[O-])n1)Nc1cccc(Cl)c1 | > 50 µM (inactive) | > 50 | > 50 |
| NS(=O)(=O)c1ccc(Nc2nccc(-c3cnn4ncccc34)n2)cc1 | 2 µM | 0.25 | 1 |
| OC1CCC(Nc2nccc(-c3sc(C4CCOCC4)nc3-c3ccc(F)c(F)c3)n2)CC1 (configuration not stated) | 5 µM | 20 | 2.5 |
| COc1ccc(C2CC(c3ccccc3Cl)=NN2C(=O)CNC(=O)C2CCCC2)cc1 (configuration not stated) | > 50 µM (inactive) | > 50 | > 50 |
| Cc1cc(N(C)C)nc2ccc(Cc3cnc(N)nc3N)cc12 | 32 µM | 40 | 40 |
| O=S(=O)(NCC(c1cccnc1)N1CCN(c2ccccc2F)CC1)c1ccc(F)cc1 (configuration not stated) | > 50 µM (inactive) | > 50 | 4 |
| Cc1occc1C(=O)Nc1ccccc1C(=O)Nc1nccs1 | > 50 µM (inactive) | > 50 | > 50 |
| O=C1NCc2cccc(Nc3nc(NC4CCC(O)CC4)ncc3Br)c21 (configuration not stated) | 0.16 µM | 0.1 | 0.13 |
| Cc1ccc(NC(=O)c2ccnc(N3CCCC3)c2)cc1-c1ccsc1C(N)=O | > 50 µM (inactive) | > 50 | > 50 |
| Cc1nc(C(=O)Nc2ccc3c(c2)OCO3)nn1-c1ccc(F)cc1 | 7.9 µM | > 50 | 2.5 |
| CCn1nccc1CN(C)C(=O)C=Cc1ccc(Cl)cc1 | > 50 µM (inactive) | > 50 | > 50 |
| COc1ccnc2[nH]cc(-c3cc(C(=O)N[C@H](CO)c4ccccc4)co3)c12 | 7.9 µM | 0.79 | 2 |
| CNc1cc(Cn2c(C(=O)c3cc(C)cc(Cl)c3)c(C(C)C)c(=O)[nH]c2=O)ccn1 | 20 µM | > 50 | 13 |
| CN(CC1CCCO1)S(=O)(=O)c1ccc(C(=O)Nc2nc(-c3ccccn3)cs2)cc1 (configuration not stated) | 6.3 µM | 7.9 | 3.2 |
| c1cc(-c2ncc(-c3ccn[nH]3)s2)ccn1 | > 50 µM (inactive) | > 50 | 10 |
| CCS(=O)(=O)Nc1ccc(C2=NN(C(=O)c3cccs3)C(c3ccccc3OC)C2)cc1 (configuration not stated) | 7.9 µM | > 50 | 7.9 |
| O=C(NNC(=O)c1ccccn1)c1ccc(-c2ccccc2)cc1 | 6.3 µM | 3.2 | 3.2 |
| Cc1ccc(NC(=O)C(C)n2nc([N+](=O)[O-])c(Br)c2C)cc1Cl (configuration not stated) | > 50 µM (inactive) | > 50 | > 50 |
| CCOc1ccc(CC(=O)N2c3ccccc3CC2C(=O)NC)cc1 (configuration not stated) | > 50 µM (inactive) | > 50 | > 50 |
| CNc1nc(C)nc(N2CCc3cc(C(=O)NCc4ccc(-c5nccn5C)cc4Cl)ccc32)n1 | 0.79 µM | 25 | 0.79 |

From PubChem BioAssay AID1159564 (GlaxoSmithKline (GSK), 2015)
